According to paper PMC3103786 (Journal of medicinal chemistry, 2009):

System: nNOS
Experiment: In vitro NOS inhibition, hemoglobin capture assay
Format: biochemical
Conditions: ratio of Ki values, eNOS over nNOS

SMILES	eNOS/nNOS
Cc1cc(N)nc(CC2CNCC2NCCNCc2ccc(Cl)cc2)c1 (racemic) [compound 6, (±)-N^1-{cis-4'-[(6“-amino-4”-methylpyridin-2“-yl)methyl]pyrrolidin-3'-yl}-N^2-(4'-chlorobenzyl)ethane-1,2-diamine]	1002
Cc1cc(N)nc(CC2CNCC2NCCNCc2cccc(Cl)c2)c1 (racemic) [compound 7, (±)-N^1-{trans-4'-[(6“-amino-4”-methylpyridin-2”-yl)methyl]pyrrolidin-3'-yl}-N^2-(3'-chlorobenzyl)ethane-1,2-diamine]	381
Nc1cccc(CC2CNCC2NCCCO)n1 (racemic) [compound 4, (±)-3-{cis-4'-[(6“-aminopyridin-2”-yl)methyl]pyrrolidin-3'-ylamino}propan-1-ol]	39
